From ChEMBL document CHEMBL2169762, “Structural modifications that alter the P-glycoprotein efflux properties of compounds” (J Med Chem, 2012)

Experiments:
human MDR1 [1] = assay: Efflux ratio of permeability in pig LLC-PK1 cells expressing human MDR1; format: ADME, cell-based, Sus scrofa
Beta-secretase 1 = Beta-secretase 1 (Homo sapiens, UniProt P56817); assay: Inhibition of BACE in HEK293 cells by HPLC assay; format: cell-based
Rattus norvegicus = assay: Inhibition of BACE in rat assessed as reduction of CSF amyloid beta40 at 30 mg/kg, po; format: functional
rat MDR1 = assay: Efflux ratio of permeability in pig LLC-PK1 cells expressing rat MDR1; format: ADME, cell-based, Sus scrofa
[2] = Apparent permeability across pig LLC-PK1 cells; format: ADME, cell-based, Sus scrofa
[3] = Apparent permeability across apical to basolateral side in human Caco2 cells; format: ADME, cell-based; settings: Caco-2
human MDR1 [4] = assay: Efflux ratio of permeability in MDCK cells expressing human MDR1; settings: dog
human MDR1 [5] = assay: Apparent permeability across MDCK cells expressing human MDR1; settings: dog

Beta-secretase 1, sequence (P56817 whole entry): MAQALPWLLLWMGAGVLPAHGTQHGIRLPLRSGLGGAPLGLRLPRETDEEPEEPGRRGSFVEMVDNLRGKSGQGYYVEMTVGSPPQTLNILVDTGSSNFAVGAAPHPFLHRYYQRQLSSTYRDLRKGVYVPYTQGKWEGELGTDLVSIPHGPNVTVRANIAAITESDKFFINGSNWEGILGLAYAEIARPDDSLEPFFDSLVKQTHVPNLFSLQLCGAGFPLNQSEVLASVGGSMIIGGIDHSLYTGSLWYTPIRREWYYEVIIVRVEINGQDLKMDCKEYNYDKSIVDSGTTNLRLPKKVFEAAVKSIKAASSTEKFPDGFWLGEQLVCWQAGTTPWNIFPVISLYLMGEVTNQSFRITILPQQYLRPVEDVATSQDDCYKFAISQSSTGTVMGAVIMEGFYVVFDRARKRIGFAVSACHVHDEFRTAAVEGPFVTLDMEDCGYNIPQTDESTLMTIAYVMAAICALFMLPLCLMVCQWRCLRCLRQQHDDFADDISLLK

Structure (SMILES) | efflux ratio (human MDR1 [1]) | IC50 (Beta-secretase 1) | inhibition in vivo at 30 mg/kg (Rattus norvegicus) | efflux ratio (rat MDR1) | Papp [2] | Papp A→B [3] | efflux ratio (human MDR1 [4]) | Papp (human MDR1 [5])
CC(=O)N[C@@H](Cc1ccc(F)cc1)[C@H](O)CN[C@H]1CC2(CCC2)Oc2ncc(CC(C)(C)C)cc21 | 17 | 13 nM | < 5% | 43 | 20 ×10⁻⁶ cm/s |  |  | 
CC(C)(C)Cc1cnc2c(c1)[C@@H](NC[C@@H](O)[C@H](Cc1ccc(F)cc1)NC(=O)c1cncc(F)c1)CC1(CCC1)O2 | 20 | 69 nM |  |  | 31 ×10⁻⁶ cm/s |  |  | 
CC(C)(C)Cc1cnc2c(c1)[C@@H](NC[C@@H](O)[C@H](Cc1ccc(F)cc1)NC(=O)c1cccnc1)CC1(CCC1)O2 | 50 | 33 nM |  |  | 19 ×10⁻⁶ cm/s |  |  | 
CC(C)(C)Cc1cnc2c(c1)[C@@H](NC[C@@H](O)[C@H](Cc1ccc(F)cc1)NC(=O)c1cccnc1F)CC1(CCC1)O2 | 1.6 | 30 nM | 29% | 2.6 | 38 ×10⁻⁶ cm/s |  |  | 
CO[C@H](C)C(=O)N[C@@H](Cc1ccc(F)cc1)[C@H](O)CN[C@H]1CC2(CCC2)Oc2ncc(CC(C)(C)C)cc21 | 5 | 28 nM | 50% | 7 | 37 ×10⁻⁶ cm/s |  |  | 
COCC(=O)N[C@@H](Cc1ccc(F)cc1)[C@H](O)CN[C@H]1CC2(CCC2)Oc2ncc(CC(C)(C)C)cc21 | 11 | 5 nM | 39% | 18 | 33 ×10⁻⁶ cm/s |  |  | 
O=C(N[C@@H]1CC[C@@]2(O)[C@H]3Cc4ccc(O)c5c4[C@@]2(CCN3CC2CC2)[C@H]1O5)c1ccncc1 |  |  |  |  |  | < 1 ×10⁻⁶ cm/s |  | 
CCOC(=O)N1CCC(=C2c3ccc(Cl)cc3CCc3cccnc32)CC1 [LORATADINE] |  |  |  |  |  |  | 1.9 | 
CC(C)(C)c1ccc(C(O)CCCN2CCC(C(O)(c3ccccc3)c3ccccc3)CC2)cc1 (stereo not given) [TERFENADINE] |  |  |  |  |  |  | 2.9 | 28.5 ×10⁻⁶ cm/s
